For orientation: melting point means the temperature of the solid-liquid transition. `CCOCc1nc2c(N)nc3ccc(O)cc3c2n1CC(C)(C)NC(=O)C1CCCCC1`: the melting point fell in the range of 231 to 232 °C. In the case of `CNC(=O)c1cccc(C2C(C(=O)c3ccc(OC)cc3)=C(O)C(=O)N2c2nnc(C)s2)c1` (stereo not given), the melting point came to 238 °C. Take `CCC(CC)(CCCS(N)(=O)=O)COc1nn2ncnc2cc1C`: the melting point lay within 157 to 158 °C. In the case of `CC1(C)N=C(c2ccccc2F)c2cc([N+](=O)[O-])cc(Br)c2NC1=O` it was 164 °C.

In turn, `Brc1ccc2c3c(cccc13)C(NCCCCCCCCCCn1ccnc1)=N2` showed a melting point of 115 to 116 °C. Molecule `O=C(NCc1ccc(Cl)cc1)c1ccc2cnccc2n1` had a melting point of 110 to 111 °C. In the case of `CC12CC=C3c4ccc(O)cc4CCC3C1CCC2=O` (stereo not given), the melting point is 250 to 255 °C. Molecule `COC(=O)c1cc(I)cc2c(=O)cc[nH]c12` showed a melting point of 75 to 77 °C.

Turning to `CCCC(=O)NCCC1=CCc2ccc(OC)cc21`, the melting point fell in the range of 64 to 67 °C. In turn, `CC(=O)Nc1cccc(C(=O)NCc2ccc(-n3c(-c4cccnc4N)nc4ccc(C)nc43)cc2)c1` had a melting point of 157 to 161 °C. `Nc1cn(C2CCN(c3c(F)c(N)c4c(=O)c(C(=O)O)cn(C5CC5)c4c3F)C2)nn1` (stereo not given) showed a melting point of 210 to 213 °C. Turning to `COC(=O)c1cc(NC=O)c2cc(Cc3ccc(F)cc3)cnc2c1O`, the melting point is 217 to 219 °C. In the case of `CN1CCCN(C(=O)c2ccc3n2Cc2ccccc2N(C(=O)c2ccc(C4CCCCC4)cc2)C3)CC1` it was 133 to 136 °C; in that of `C=CS(=O)(=O)Nc1c(C)cc([N+](=O)[O-])cc1C`, 132 °C; in that of `CC1CCNC(=C2C(=O)CC(C)(C)CC2=O)C1` (stereo not given), 174 °C. Molecule `CCCCOc1c(CNC(=O)OC(C)(C)C)n(CC(C)C)c(=O)c2ccc(/C=C/c3cscn3)cc12` returned a melting point of 141 to 142 °C. In the case of `NC(=O)c1cc2c(c(C(=O)O)c1)NCCC2` it was 268 to 269 °C. The value for `CC(C)OC(=O)c1cc([N+](=O)[O-])c(O)c([N+](=O)[O-])c1` was 108 to 110 °C. `CCN(CC)CCn1c2c(c3ccccc31)CCS(=O)(=O)CCC2` returned a melting point of 118 to 120 °C. Take `CC1CCOCc2nc3c(N)nc4cc(Br)ccc4c3n21` (stereo not given): the melting point fell in the range of 247 to 248 °C. In the case of `Clc1cccc(C(c2ccc3[nH]cnc3c2)n2ccnc2)c1` (stereo not given) it was 108 °C. In the case of `Cc1cc(-c2noc(C)c2-c2ccc(S(N)(=O)=O)c(F)c2)ccc1-c1cscn1` it was 159 °C; in that of `COc1ccc2c(c1OC)CC(c1ccccc1)CC2=O` (stereo not given), 127 to 128 °C. The value for `CC1CCCN1CCN1CCN(CCCN2CCCCC2)C1=C(C#N)C#N` (stereo not given) was 84 to 86 °C; that for `CCOC(CNC(=S)Nc1ccnn1C)OCC` was 148 to 149 °C; that for `CS(=O)(=O)CCCCC(C1CCCCC1)S(=O)(=O)c1ccc(Cl)cc1` (stereo not given) was 104 to 106 °C. As for `CN(C)CCOc1c2c(nc3ccccc13)C(C)(C)OC2`, the melting point was in the range of 92 to 93 °C. In turn, `Cc1n[nH]c2c1C(=O)CC(c1ccccc1O)C2` (stereo not given) displayed a melting point of 252 to 255 °C. `NC(=O)Cc1ccc(N/C=C2\C(=O)Nc3ccccc32)cc1` showed a melting point above 250 °C. Turning to `CS(=O)(=O)Oc1ccccc1C(=O)O`, the melting point is 125 to 126 °C. For the molecule `CC(C)(C)OC(=O)c1ccc(C#Cc2cnc3nc(N)nc(O)c3c2)cc1`, the melting point is above 260 °C. The value for `Cc1ccc2c(c1)c(Sc1ccc(Cl)cc1)c(C)n2CC(=O)O` was 219 to 221 °C.

In turn, `Cc1ccc(S(=O)(=O)C(CC=Cc2ccc(Cl)cc2)C(=O)O)cc1` (stereo not given) yielded a melting point of 162 to 164 °C. Molecule `CNC(=O)c1ccc(-c2cnc3[nH]c(=O)n(CC4CCCCC4)c3n2)cc1` yielded a melting point of 273 to 275 °C. In the case of `CC1Cc2c(N3CCCC(O)C3)c(F)cc3c(=O)c(C(=O)O)cn1c23` (stereo not given), the melting point was in the range of 251 to 253 °C. `COC(=O)c1ccc(-c2c(CC(=O)Nc3ccc(F)cc3C(F)(F)F)c(=O)oc3cc(Cl)c(C)cc23)cc1` showed a melting point of 202 to 204 °C.

In turn, `CCOC(=O)c1sc2cccc(O)c2c1C` showed a melting point of 183 to 184 °C. Molecule `CC(C)C(Cl)C(=O)Nc1c(C(=O)CC(=O)Nc2ccccn2)cccc1C(F)(F)F` (stereo not given) came in with a melting point of 136 to 138 °C. For `CC(Oc1ccc(NC(=O)NC(=O)c2ccccc2Cl)cc1)c1ccccc1` (stereo not given), the melting point is 166 to 167 °C. Regarding `Cc1c(F)c(F)cc(F)c1C(=O)O`, the melting point was in the range of 104 to 105 °C. `CCOC(=O)CCc1cc(OCC(=O)O)nn1Cc1ccc(Cl)cc1Cl` returned a melting point of 129 to 131 °C. `Cc1nc2cc(NC(=O)c3cc4cccnc4n3Cc3ccncc3)ccc2n1C`: the melting point was in the range of 236 to 246 °C.

In turn, `COc1cc(CCCCCCCCCCCO)ccc1O` gave a melting point of 72 to 74 °C. As for `O=C(O)/C=C/c1ccc(OCC2CCCO2)cc1Oc1ncc(C(F)(F)F)cc1Cl` (stereo not given), the melting point fell in the range of 106 to 109 °C. For `CCN(CC)CC1CCCCN1CC(=O)N1c2ccccc2C(=O)Nc2cccnc21` (stereo not given), the melting point lay in the range of 210 to 212 °C.

Take `COc1cc(-c2c(Cl)c(CN3C(=O)CCC3=O)nc3sc4c(c23)CCN(C(C)=O)C4)ccc1O`: the melting point was 273 to 275 °C. Take `C=CCNc1nc(Cl)c2ccn(C)c2n1`: the melting point was in the range of 113 to 114 °C. The molecule `CCOC(=O)c1cnc2onc(C)c2c1O` showed a melting point of 150 to 152 °C. Take `O=S1(=O)CCN2C=CC=C(c3ccc(OC4CCCC4)cc3)C2=N1`: the melting point lay within 254 to 256 °C. In turn, `COc1ccccc1N1CCN(CCn2c(=O)[nH]c3scc(C)c3c2=O)CC1` showed a melting point of 209 to 213 °C. `CCn1ncc2c(NCC3(O)CCCCC3)c3cc(OC)ccc3nc21`: the melting point was in the range of 201 to 203 °C. `N#Cc1cc(C(=O)Cl)n(/C=C/c2ccccc2)c1` displayed a melting point of 119 to 121 °C.

On to `CN(C)CCc1nc2cccnc2[nH]1`, for which the melting point is 109 to 112 °C. For `C=C(C)N(C(=C)C)C(=O)C(C)Oc1cc(-c2ccccc2)nc2ccccc12` (stereo not given), the melting point is 110 °C. `O=C(N[C@H]1CCCNC1=O)c1ccc(F)cc1F`: the melting point lay within 140 to 141 °C. Turning to `Oc1nc2ccccc2c(O)c1O`, the melting point is above 250 °C. In the case of `FC(F)c1nc2ccccc2n1-c1nc(Oc2cccnc2)nc(N2CCOCC2)n1` it was 229 to 231 °C; in that of `CCOc1cc(N)c(Cl)cc1C(=O)NCC1CN(CC2CCN(C(N)=O)CC2)CCO1` (stereo not given), 201 to 207 °C; in that of `CCCCCCCCCCCCCCOc1cccc(CC(=O)OC)c1`, 31 to 33 °C. In the case of `CC(=O)c1cc2c(s1)SCCc1cc(=O)n(-c3ccc(Cl)cc3)nc1-2` it was 248 to 250 °C; in that of `COc1c(Br)cccc1[N+](=O)[O-]`, 55 to 56 °C; in that of `COc1ccc(-c2cn(CCCC#N)c3c(OC)ccc(OC)c3c2=O)cc1`, 126 to 127 °C.

Take `CCOC1OC(C(O)CO)C(O)C1O` (stereo not given): the melting point is 59 to 60 °C.

`Cn1cnnc1C(OCCO)(c1ccc(F)cc1)c1cc2c3c(c1)c(-c1cccc(Cl)c1)cc(=O)n3CC2` (stereo not given) registered a melting point of 138 °C. In the case of `COc1cc(-c2cc(=O)c3ccc(OCC(O)CN4CCN(c5ccccc5)CC4)cc3o2)cc(OC)c1OC` (stereo not given), the melting point fell in the range of 170 to 171 °C.
